In patent US20230079045A1 (priority 2019, published 2023):
pEC50: −log10 of the molar value.

How the values were obtained:
IFVA/Mal/302/54 = assay: cytopathic effect (CPE) antiviral test in MDCK cells, IFVA/Mal/302/54; assay type: cell-based, influenza virus; conditions: unidentified influenza virus, MDCK, 120 h, read-out: EC50(IFVA/Mal/302/54), MDCK cells, CPE method, CCK-8 cell viability, 5 days
IFVA/Weiss/43 = assay: cytopathic effect (CPE) antiviral test in MDCK cells, IFVA/Weiss/43; assay type: cell-based, influenza virus; conditions: unidentified influenza virus, MDCK, 120 h, read-out: EC50(IFVA/Weiss/43), MDCK cells, CPE method, CCK-8 cell viability, 5 days

Work on `CC(=O)Nc1ccc2oc(-c3ccnc(C(=O)N4CCN(C(c5ccccc5)c5nnn(C)n5)C5(CC5)C4)c3)nc2c1` (centres unmarked) [Compound 7, N-(2-(2-(4-((2-methyl-2H-tetrazol-5-yl)(phenyl)methyl)-4,7-diazaspiro[2.5]octane-7-carbonyl)pyridin-4-yl)benzo[d]oxazol-5-yl)acetamide] yielded a pEC50 (IFVA/Mal/302/54) of 6.08 and a pEC50 (IFVA/Weiss/43) of 6.28.
For `CC(=O)Nc1ccc2oc(-c3ccnc(C(=O)N4CC5(CCN(C(c6ccccc6)c6nnn(C)n6)CC5)C4)c3)nc2c1` (centres unmarked) [Compound 8, N-(2-(2-(7-((2-methyl-2H-tetrazol-5-yl)(phenyl)methyl)-2,7-diazaspiro[3.5]nonane-2-carbonyl)pyridin-4-yl)benzo[d]oxazol-5-yl)acetamide], the pEC50 (IFVA/Mal/302/54) was less than 5.00 and the pEC50 (IFVA/Weiss/43) was less than 5.00.
For `CC(=O)Nc1ccc2oc(-c3ccnc(C(=O)N4CCN(C(c5nnn(C)n5)c5ccccc5F)CC4)c3)nc2c1` (centres unmarked) [Compound 9, N-(2-(2-(4-((2-fluorophenyl)(2-methyl-2H-tetrazol-5-yl)methyl)piperazine-1-carbonyl)pyridin-4-yl)benzo[d]oxazol-5-yl)acetamide], the pEC50 (IFVA/Mal/302/54) was 6.67 and the pEC50 (IFVA/Weiss/43) was 6.90.
With `CC(=O)Nc1ccc2oc(-c3ccnc(C(=O)N4CC5(C4)CN(C(c4ccccc4)c4nnn(C)n4)C5)c3)nc2c1` (centres unmarked) [Compound 10, N-(2-(2-(6-((2-methyl-2H-tetrazol-5-yl)(phenyl)methyl)-2,6-diazaspiro[3.3]heptane-2-carbonyl)pyridin-4-yl)benzo[d]oxazol-5-yl)acetamide] the pEC50 (IFVA/Mal/302/54) was less than 5.00 and the pEC50 (IFVA/Weiss/43) was less than 5.00.
With `CC(=O)Nc1ccc2oc(-c3ccnc(C(=O)N4CCN(C(c5cccc(F)c5)c5nnn(C)n5)CC4)c3)nc2c1` (centres unmarked) [Compound 11, N-(2-(2-(4-((3-fluorophenyl)(2-methyl-2H-tetrazol-5-yl)methyl)piperazine-1-carbonyl)pyridin-4-yl)benzo[d]oxazol-5-yl)acetamide] the pEC50 (IFVA/Mal/302/54) was 6.59 and the pEC50 (IFVA/Weiss/43) was 6.76.
For `CC(=O)Nc1ccc2oc(-c3ccnc(C(=O)N4CCN(C(c5ccc(F)cc5)c5nnn(C)n5)CC4)c3)nc2c1` (centres unmarked) [Compound 12, N-(2-(2-(4-((4-fluorophenyl)(2-methyl-2H-tetrazol-5-yl)methyl)piperazine-1-carbonyl)pyridin-4-yl)benzo[d]oxazol-5-yl)acetamide], the pEC50 (IFVA/Mal/302/54) was 7.26 and the pEC50 (IFVA/Weiss/43) was 7.66.
`CC(=O)Nc1ccc2oc(-c3ccnc(C(=O)N4CCC5(CC4)CN(C(c4ccccc4)c4nnn(C)n4)C5)c3)nc2c1` (centres unmarked) [Compound 13, N-(2-(2-(2-((2-methyl-2H-tetrazol-5-yl)(phenyl)methyl)-2,7-diazaspiro[3.5]nonane-7-carbonyl)pyridin-4-yl)benzo[d]oxazol-5-yl)acetamide] was tested, and the pEC50 (IFVA/Mal/302/54) was 5.11 and the pEC50 (IFVA/Weiss/43) was less than 5.00.
In the case of `CC(=O)Nc1ccc2oc(-c3ccnc(C(=O)N4C[C@@H]5C[C@H]4CN5C(c4ccccc4)c4nnn(C)n4)c3)nc2c1` (stereo partly drawn) [Compound 14, N-(2-(2-((1S,4S)-5-((2-methyl-2H-tetrazol-5-yl)(phenyl)methyl)-2,5-diazabicyclo[2.2.1]heptane-2-carbonyl)pyridin-4-yl)benzo[d]oxazol-5-yl)acetamide], the pEC50 (IFVA/Mal/302/54) was 5.96 and the pEC50 (IFVA/Weiss/43) was 6.42.
`CC(=O)Nc1ccc2oc(-c3ccc(C#N)c(C(=O)N4CCN(C(c5ccccc5)c5nnn(C)n5)CC4)c3)nc2c1` (centres unmarked) [Compound 15, N-(2-(4-cyano-3-(4-((2-methyl-2H-tetrazol-5-yl)(phenyl)methyl)piperazine-1-carbonyl)phenyl)benzo[d]oxazol-5-yl)acetamide] was tested, and the pEC50 (IFVA/Mal/302/54) was less than 5.00 and the pEC50 (IFVA/Weiss/43) was less than 5.00.
With `CC(=O)Nc1ccc2oc(-c3ccnc(C(=O)N4C5CCC4CN(C(c4ccccc4)c4nnn(C(F)F)n4)C5)c3)nc2c1` (centres unmarked) [Compound 17, N-(2-(2-(3-((2-(difluoromethyl)-2H-tetrazol-5-yl)(phenyl)methyl)-3,8-diazabicyclo[3.2.1]octane-8-carbonyl)pyridin-4-yl)benzo[d]oxazol-5-yl)acetamide] the pEC50 (IFVA/Mal/302/54) was 7.66 and the pEC50 (IFVA/Weiss/43) was 8.05.
`CC(=O)Nc1ccc2oc(-c3ccnc(C(=O)N4C5CCC4CN(C(c4ccccc4)c4nnnn4C(F)F)C5)c3)nc2c1` (centres unmarked) [Compound 18, N-(2-(2-(3-((1-(difluoromethyl)-1H-tetrazol-5-yl)(phenyl)methyl)-3,8-diazabicyclo[3.2.1]octane-8-carbonyl)pyridin-4-yl)benzo[d]oxazol-5-yl)acetamide] gave a pEC50 (IFVA/Mal/302/54) of 6.75 and a pEC50 (IFVA/Weiss/43) of 6.37.
With `Cn1nnc(C(c2ccccc2)N2C[C@H]3CC[C@@H](C2)N3C(=O)c2cc(-c3nc4cc(N5CCCC5=O)ccc4o3)ccn2)n1` (stereo partly drawn) [Compound 19, 1-(2-(2-((1R,5S)-3-((2-methyl-2H-tetrazol-5-yl)(phenyl)methyl)-3,8-diazabicyclo[3.2.1]octane-8-carbonyl)pyridin-4-yl)benzo[d]oxazol-5-yl)pyrrolidin-2-one] the pEC50 (IFVA/Mal/302/54) was 7.72 and the pEC50 (IFVA/Weiss/43) was 7.64.
`CC(=O)Nc1ccc2oc(-c3ccnc(C(=O)N4C5CC4CN(C(c4ccccc4)c4nnn(C)n4)C5)c3)nc2c1` (centres unmarked) [Compound 20, N-(2-(2-(3-((2-methyl-2H-tetrazol-5-yl)(phenyl)methyl)-3,6-diazabicyclo[3.1.1]heptane-6-carbonyl)pyridin-4-yl)benzo[d]oxazol-5-yl)acetamide] was tested, and the pEC50 (IFVA/Mal/302/54) was 6.04 and the pEC50 (IFVA/Weiss/43) was 6.26.
Work on `Cn1nnc(C(c2ccccc2)N2CC3CC(C2)N3C(=O)c2cc(-c3nc4cc(NC(=O)C5CC5)ccc4o3)ccn2)n1` (centres unmarked) [Compound 21, N-(2-(2-(3-((2-methyl-2H-tetrazol-5-yl)(phenyl)methyl)-3,6-diazabicyclo[3.1.1]heptane-6-carbonyl)pyridin-4-yl)benzo[d]oxazol-5-yl)cyclopropanecarboxamide] yielded a pEC50 (IFVA/Mal/302/54) of 6.36 and a pEC50 (IFVA/Weiss/43) of 6.79.
Compound `CC(=O)Nc1ccc2oc(-c3ccnc(C(=O)N4C5CCC4CN(C(c4ccccc4)c4nnn(CCF)n4)C5)c3)nc2c1` (centres unmarked) [Compound 22, N-(2-(2-(3-((2-(2-fluoroethyl)-2H-tetrazol-5-yl)(phenyl)methyl)-3,8-diazabicyclo[3.2.1]octane-8-carbonyl)pyridin-4-yl)benzo[d]oxazol-5-yl)acetamide] has a pEC50 (IFVA/Mal/302/54) of 7.48 and a pEC50 (IFVA/Weiss/43) of 7.60.
Work on `CC(=O)Nc1ccc2oc(-c3ccnc(C(=O)N4CC5CC(C4)N5C(c4ccccc4)c4nnn(C)n4)c3)nc2c1` (centres unmarked) [Compound 23, N-(2-(2-(6-((2-methyl-2H-tetrazol-5-yl)(phenyl)methyl)-3,6-diazabicyclo[3.1.1]heptane-3-carbonyl)pyridin-4-yl)benzo[d]oxazol-5-yl)acetamide] yielded a pEC50 (IFVA/Mal/302/54) of less than 5.00 and a pEC50 (IFVA/Weiss/43) of less than 5.00.
Work on `Cn1nnc(C(c2ccccc2)N2CCN(C(=O)c3cc(-c4nc5cc(NC(=O)[C@@H]6CC6(F)F)ccc5o4)ccn3)CC2)n1` (stereo partly drawn) [Compound 24, (1S)-2,2-difluoro-N-(2-(2-(4-((2-methyl-2H-tetrazol-5-yl)(phenyl)methyl)piperazine-1-carbonyl)pyridin-4-yl)benzo[d]oxazol-5-yl)cyclopropane-1-carboxamide] yielded a pEC50 (IFVA/Mal/302/54) of 7.49 and a pEC50 (IFVA/Weiss/43) of 7.92.
Compound `Cn1nnc(C(c2ccccc2)N2CCN(C(=O)c3cc(-c4nc5cc(NC(=O)[C@@H]6C[C@H]6F)ccc5o4)ccn3)CC2)n1` (stereo partly drawn) [Compound 25, (1S,2R)-2-fluoro-N-(2-(2-(4-((2-methyl-2H-tetrazol-5-yl)(phenyl)methyl)piperazine-1-carbonyl)pyridin-4-yl)benzo[d]oxazol-5-yl)cyclopropane-1-carboxamide] has a pEC50 (IFVA/Mal/302/54) of 7.17 and a pEC50 (IFVA/Weiss/43) of 7.22.
Work on `Cn1nnc(C(c2ccccc2)N2CCN(C(=O)c3cc(-c4nc5cc(NC(=O)[C@@H]6C[C@@H]6F)ccc5o4)ccn3)CC2)n1` (stereo partly drawn) [Compound 26, (1S,2S)-2-fluoro-N-(2-(2-(4-((2-methyl-2H-tetrazol-5-yl)(phenyl)methyl)piperazine-1-carbonyl)pyridin-4-yl)benzo[d]oxazol-5-yl)cyclopropane-1-carboxamide] yielded a pEC50 (IFVA/Mal/302/54) of 7.70 and a pEC50 (IFVA/Weiss/43) of 8.52.
`Cn1nnc(C(c2ccccc2)N2CCN(C(=O)c3cc(-c4nc5cc(NC(=O)[C@H]6C[C@@H]6F)ccc5o4)ccn3)CC2)n1` (stereo partly drawn) [Compound 27, (1R,2S)-2-fluoro-N-(2-(2-(4-((2-methyl-2H-tetrazol-5-yl)(phenyl)methyl)piperazine-1-carbonyl)pyridin-4-yl)benzo[d]oxazol-5-yl)cyclopropane-1-carboxamide] was tested, and the pEC50 (IFVA/Mal/302/54) was 6.90 and the pEC50 (IFVA/Weiss/43) was 7.48.
Compound `Cn1nnc(C(c2ccccc2)N2CCN(C(=O)c3cc(-c4nc5cc(NC(=O)[C@H]6C[C@H]6F)ccc5o4)ccn3)CC2)n1` (stereo partly drawn) [Compound 28, (1R,2R)-2-fluoro-N-(2-(2-(4-((2-methyl-2H-tetrazol-5-yl)(phenyl)methyl)piperazine-1-carbonyl)pyridin-4-yl)benzo[d]oxazol-5-yl)cyclopropane-1-carboxamide] has a pEC50 (IFVA/Mal/302/54) of 7.57 and a pEC50 (IFVA/Weiss/43) of 7.77.
`O=C(Nc1ccc2oc(-c3ccnc(C(=O)N4CCN(C(c5ccccc5)c5nnn(C(F)F)n5)CC4)c3)nc2c1)[C@@H]1C[C@H]1F` (stereo partly drawn) [Compound 30, (1S,2R)-2-fluoro-N-(2-(2-(4-((2-difluoromethyl-2H-tetrazol-5-yl)(phenyl)methyl)piperazine-1-carbonyl)pyridin-4-yl)benzo[d]oxazol-5-yl)cyclopropane-1-carboxamide] gave a pEC50 (IFVA/Mal/302/54) of 7.57 and a pEC50 (IFVA/Weiss/43) of 7.92.
`O=C(Nc1ccc2oc(-c3ccnc(C(=O)N4CCN(C(c5ccccc5)c5nnn(C(F)F)n5)CC4)c3)nc2c1)[C@H]1C[C@@H]1F` (stereo partly drawn) [Compound 32, (1R,2S)-2-fluoro-N-(2-(2-(4-((2-difluoromethyl-2H-tetrazol-5-yl)(phenyl)methyl)piperazine-1-carbonyl)pyridin-4-yl)benzo[d]oxazol-5-yl)cyclopropane-1-carboxamide] gave a pEC50 (IFVA/Mal/302/54) of 8.52 and a pEC50 (IFVA/Weiss/43) of 7.59.
For `O=C(Nc1ccc2oc(-c3ccnc(C(=O)N4CCN(C(c5ccccc5)c5nnn(C(F)F)n5)CC4)c3)nc2c1)[C@H]1C[C@H]1F` (stereo partly drawn) [Compound 33, (1R,2R)-2-fluoro-N-(2-(2-(4-((2-difluoromethyl-2H-tetrazol-5-yl)(phenyl)methyl)piperazine-1-carbonyl)pyridin-4-yl)benzo[d]oxazol-5-yl)cyclopropane-1-carboxamide], the pEC50 (IFVA/Mal/302/54) was 7.51 and the pEC50 (IFVA/Weiss/43) was 7.80.
In the case of `CS(=O)(=O)Nc1ccc2oc(-c3ccnc(C(=O)N4CCN(C(c5ccccc5)c5nnn(C(F)F)n5)CC4)c3)nc2c1` (centres unmarked) [Compound 34], the pEC50 (IFVA/Mal/302/54) was less than 5.00 and the pEC50 (IFVA/Weiss/43) was less than 5.00.
